Results from PMC11239830, “Synthetic macrolides overcoming MLSBK-resistant pathogens” (Cell Discovery, 2024).
Read-outs that look alike come from different tables or passages of the source.

Legend:
H. influenzae = experiment: MIC, broth microdilution; assay type: cell-based, Haemophilus influenzae; settings: Haemophilus influenzae, ATCC49247, H. influenzae ATCC49247, Azi-S; read-out: MIC
Method in brief: (§1)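 Read-out is the lowest concentration without observed growth after 16–20 h at 37 °C, using the CLSI broth microdilution method.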

S. aureus [1] = experiment: MICs and MBCs against selected S. aureus isolates; assay type: cell-based, Staphylococcus aureus
[2] = test system: 15B196 S. aureus ribosomes (A2058-methylated); experiment: PURE in vitro translation inhibition assay; assay type: biochemical, Staphylococcus aureus; settings: mean ± SD
Description: (§2) To validate the in vitro activity of our compounds, we employed an in vitro reconstituted E. coli Protein synthesis Using a Recombinant Elements (PURE) translation system, substituting E. coli ribosomes with the purified S. aureus ribosomes.
(§3) 5 μL of PURE reaction mix that translates a gene encoding the Nanoluc luciferase was set up in the presence or absence of tested compounds. Protein synthesis was initiated by incubating reactions at 37 °C for 60 min and stopped by placing on ice for 5 min. Luciferase activity was quantified using the Nano-Glo luciferase assay system and read on a GloMax 20/20 luminometer (Promega, USA). For each compound, the in vitro translation inhibition assay was performed in three biological triplicates over a range of concentrations from 0.001 μM to 1000 μM. A compound-free control was used to normalize luminescence measurements. The calculated luminescence percentages were plotted against compound concentrations on a semilog scale using GraphPad Prism.

WT S. aureus ribosomes = experiment: PURE in vitro translation inhibition assay; assay type: biochemical, Staphylococcus aureus; settings: mean ± SD
Description: as §2, §3

[3] = CCK-8 assay for cytotoxicity; assay type: cell-based, human; settings: human, HEK293T cells, HEK293T cell viability
Description: HepG2 cells (6 × 10^3) and HEK293T cells (4 × 10^3) were seeded into 96-well plates in 90 μL of DMEM medium containing 10% FBS per well. […] After overnight incubation, the test compound stock solution was diluted with DMEM medium containing 10% FBS to every target concentration, and 10 μL of each was added to each well. Three parallel experiments were set up for each compound. After incubation for 48 h, 10 μL of cell counting kit-8 (CCK-8) reagent was added to each well in sequence according to the manufacturer’s instructions. […] This experiment was independently repeated three times. The data were processed by GraphPad Prism.

S. pneumoniae = experiment: MIC, broth microdilution; assay type: cell-based, Streptococcus pneumoniae
Method in brief: as §1

S. aureus [4] = experiment: MIC, broth microdilution; assay type: cell-based, Staphylococcus aureus
Method in brief: as §1

M. catarrhalis = experiment: MIC, broth microdilution; assay type: cell-based, Moraxella catarrhalis; settings: Moraxella catarrhalis; M. catarrhalis 13L332, Ery-S; read-out: MIC
Description: MICs were determined by the microdilution method according to the Clinical and Laboratory Standards Institute guidelines. Briefly, the stock solution of compounds and the reference antibiotics were diluted 2-fold in sterile 96-well plates with cation-adjusted Mueller-Hinton broth, and mixed with CAMHB-containing bacteria to give a final inoculum of 5 × 10^5 CFU/mL for broth microdilution experiments. […] Finally, the 96-well plates were incubated at 37 °C for 16–20 h to observe and record the results. The lowest concentration at which no bacterial growth could be observed visually was identified as the MICs of the compounds. The assay for MICs was replicated at least three times.

S. pyogenes = experiment: MIC, broth microdilution; assay type: cell-based, Streptococcus pyogenes
Method in brief: as §1

[5] = Staphylococcus aureus, All S. aureus (24)
[6] = Staphylococcus aureus, i-MLSB S. aureus (10)

CC[C@H]1OC(=O)[C@H](C)C(=O)[C@H](C)[C@@H](O[C@@H]2O[C@H](C)C[C@H](N(C)C)[C@H]2O)[C@](C)(OC)C[C@@H](C)C(=O)[C@H](C)[C@H]2N(CCCCn3cnc(-c4cccnc4)c3)C(=O)O[C@]12C [telithromycin, reference compound]
> 100 µM: CC50 at 48 h [3]
8 mg/L: MIC (S. aureus [1]; Staphylococcus aureus, MRSA, strain 6, MRSA, c-ermB, read-out: MIC) | MIC (S. aureus [1]; Staphylococcus aureus, MRSA, strain 7, MRSA, c-ermB, read-out: MIC) | MIC (S. pyogenes; S. pyogenes 21D184, Clinical, c-ermB) | MIC (S. pyogenes; S. pyogenes 21D199, Clinical, c-ermB) | MIC (S. pyogenes; S. pyogenes 21W186, Clinical, c-ermTR)
> 128 mg/L: MBC (S. aureus [1]; Staphylococcus aureus, MRSA, strain 10, MRSA, c-ermB, read-out: MBC)
16 mg/L: MIC (S. aureus [1]; Staphylococcus aureus, MRSA, strain 10, MRSA, c-ermB, read-out: MIC) | MIC (S. aureus [4]; S. aureus 21Q253, Clinical, MRSA, c-ermB) | MIC50 (S. aureus [4]; [5]) | MIC (S. pyogenes; S. pyogenes 21C303, Clinical, c-ermB) | MIC (S. pyogenes; S. pyogenes 21D200, Clinical, c-ermB) | MIC (S. pyogenes; S. pyogenes 21M063, Clinical, c-ermB)
> 64 mg/L: MBC (S. aureus [1]; Staphylococcus aureus, MRSA, strain 6, MRSA, c-ermB, read-out: MBC) | MBC (S. aureus [1]; Staphylococcus aureus, MRSA, strain 7, MRSA, c-ermB, read-out: MBC)
0.38 ± 0.13 µM: IC50 (WT S. aureus ribosomes)
32 mg/L: MIC (S. aureus [4]; S. aureus 15B196, c-ermB)
0.12 mg/L: MIC (S. aureus [1]; Staphylococcus aureus, ATCC29213, S. aureus ATCC29213 (Table S10), read-out: MIC) | MIC (S. aureus [1]; Staphylococcus aureus, MRSA, strain 4, MRSA, i-ermA, read-out: MIC) | MIC (S. aureus [1]; Staphylococcus aureus, MSSA, strain 2, MSSA, i-ermC, read-out: MIC) | MIC (S. aureus [1]; Staphylococcus aureus, MSSA, strain 3, MSSA, i-ermC, read-out: MIC) | MIC (S. pneumoniae; S. pneumoniae 21C315, Clinical, c-ermB) | MIC (S. pneumoniae; S. pneumoniae 21M277, Clinical, c-ermB) | MIC (S. pneumoniae; S. pneumoniae 21W257, Clinical, c-ermB, mef) | MIC (S. aureus [4]; S. aureus 21C187, Clinical, MRSA, i-ermA) | MIC (S. aureus [4]; S. aureus 21D115, Clinical, MSSA, i-ermC) | MIC (S. aureus [4]; S. aureus PU32, Clinical, MRSA, i-ermA)
0.016 mg/L: MIC (S. pneumoniae; S. pneumoniae 21X435, Clinical) | MIC (S. pyogenes; S. pyogenes 01-968, Clinical, i-ermB)
0.06 mg/L: MIC (S. pneumoniae; S. pneumoniae 21Q352, Clinical, i-MLSB)
64 mg/L: MIC (S. aureus [4]; Staphylococcus aureus, S. aureus 15B196, c-ermB, read-out: MIC)
1 mg/L: MIC (S. pneumoniae; S. pneumoniae PU09, mef) | MIC (S. pyogenes; S. pyogenes 21K003, Clinical, mef)
128 mg/L: MIC (S. aureus [1]; Staphylococcus aureus, MRSA, strain 11, MRSA, c-ermB) | MIC (S. aureus [4]; S. aureus 15B196, Clinical, MRSA, c-ermB) | MIC (S. aureus [4]; S. aureus 21N354, Clinical, MRSA, c-ermB) | MIC50 (S. aureus [4]; Staphylococcus aureus, MRSA, MRSA (13))
0.03 mg/L: MIC (S. pneumoniae; S. pneumoniae 21Q353, Clinical, i-MLSB)
> 2 mg/L: MBC (S. aureus [1]; Staphylococcus aureus, MRSA, strain 1, MRSA, i-ermA, read-out: MBC) | MBC (S. aureus [1]; Staphylococcus aureus, MRSA, strain 5, MRSA, i-ermC, read-out: MBC)
> 10 µM: IC50 [2]
0.5 mg/L: MIC (S. pneumoniae; Streptococcus pneumoniae, S. pneumoniae PU09, mef, read-out: MIC) | MIC (S. aureus [4]; S. aureus 21P404, Clinical, MSSA, i-ermC) | MIC50 (S. aureus [4]; Staphylococcus aureus, MSSA, MSSA (10)) | MIC (S. pyogenes; S. pyogenes 12-207, Clinical, mef)
0.25 mg/L: MIC (S. aureus [1]; Staphylococcus aureus, MRSA, strain 1, MRSA, i-ermA, read-out: MIC) | MIC (S. aureus [1]; Staphylococcus aureus, MRSA, strain 5, MRSA, i-ermC, read-out: MIC) | MIC (S. pneumoniae; S. pneumoniae 21D016, Clinical, c-ermB, mef) | MIC (S. pneumoniae; S. pneumoniae 21D020, Clinical, c-ermB, mef) | MIC (S. aureus [4]; S. aureus 21B212, Clinical, MSSA, i-ermC) | MIC (S. aureus [4]; S. aureus 21C173, Clinical, MSSA, i-ermC) | MIC (S. aureus [4]; S. aureus 21F207, Clinical, MRSA, i-ermC) | MIC (S. aureus [4]; S. aureus 21K194, Clinical, MSSA, i-ermC) | MIC (S. aureus [4]; S. aureus 21X388, Clinical, i-ermA (MRSA in Table S9, MSSA in Fig. 2a)) | MIC (S. aureus [4]; S. aureus 21Y223, Clinical, MRSA, i-ermC) | MIC (S. aureus [4]; S. aureus ATCC29213) | MIC50 (S. aureus [4]; [6]) | MIC90 (S. aureus [4]; [6]) | MIC (M. catarrhalis)
4 mg/L: MIC (H. influenzae) | MIC (S. pneumoniae; Streptococcus pneumoniae, S. pneumoniae 05O173, c-ermB, mef, read-out: MIC)
> 1 mg/L: MBC (S. aureus [1]; Staphylococcus aureus, MRSA, strain 4, MRSA, i-ermA, read-out: MBC) | MBC (S. aureus [1]; Staphylococcus aureus, S. aureus ATCC29213, read-out: MBC) | MBC (S. aureus [1]; Staphylococcus aureus, strain 3, MSSA, i-ermC, read-out: MBC) | MBC (S. aureus [1]; strain 2, MSSA, i-ermC)
> 256 mg/L: MIC (S. aureus [1]; Staphylococcus aureus, MSSA, strain 8, MSSA, c-ermB) | MIC (S. aureus [1]; Staphylococcus aureus, MSSA, strain 9, MSSA, c-ermB) | MIC (S. aureus [4]; S. aureus 21B200, Clinical, MRSA, c-ermB) | MIC (S. aureus [4]; S. aureus 21B207, Clinical, MRSA, c-ermB) | MIC (S. aureus [4]; S. aureus 21C174, Clinical, MSSA, c-ermB) | MIC (S. aureus [4]; S. aureus 21D112, Clinical, MSSA, c-ermB) | MIC (S. aureus [4]; S. aureus 21F198, Clinical, MRSA, c-ermB) | MIC (S. aureus [4]; S. aureus 21F206, Clinical, MSSA, c-ermB) | MIC (S. aureus [4]; S. aureus 21P191, Clinical, MSSA, c-ermC) | MIC (S. aureus [4]; S. aureus 21P407, Clinical, MRSA, c-ermB) | MIC (S. aureus [4]; S. aureus 21R216, Clinical, MSSA, c-ermC) | MIC (S. aureus [4]; S. aureus 21T141, Clinical, MRSA, c-ermB) | MIC90 (S. aureus [4]; [5]) | MIC50 (S. aureus [4]; Staphylococcus aureus, c-MLSB (constitutive) S. aureus (13)) | MIC90 (S. aureus [4]; Staphylococcus aureus, MRSA (13)) | MIC90 (S. aureus [4]; Staphylococcus aureus, MSSA (10))
0.008 mg/L: MIC (S. pneumoniae; S. pneumoniae ATCC49619)
